Test results reported in patent US20150203517A1, “Prodrugs of Compounds that Enhance Antifungal Activity and Compositions of Said Prodrugs” (priority 2014, published 2015).
Where a name gives a salt, the structure may show the parent alone.

Legend:
[1] = Saline solubility at 1.00 mg/mL and 0.50 mg/mL (with pH by indicator paper); assay type: physicochemical; conditions: for pH at 1.00 mg/mL of MGCD290 in saline: final concentration of hydroxamate 1 1.00 mg/mL, pH indicator paper; for solubility at 1 h: saline or isotonic, thermodynamic from solid, 1.00 mg/mL as hydroxamate 1, shaken 1 hour, centrifuged, soluble = no precipitate formed, read-out: Soluble at 1.00 mg/mL of MGCD290 (Y/N)
Method in brief: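 Prodrug was weighed to give 1.00 mg/mL hydroxamate equivalent in saline, vortexed 1 h and centrifuged, and diluted to 0.50 mg/mL if it precipitated. pH was checked by indicator paper. Stability in solution diluted 1:1 with saline was followed by HPLC-UV at 0, 6 and 24 h.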

[2] = Saline solubility at 10.00 mg/mL, 5.00 mg/mL and 2.50 mg/mL (with pH by pH meter); assay type: physicochemical; conditions: saline or isotonic, thermodynamic from solid, concentration expressed as equivalent of Cpd 1, highest tested concentration soluble, read-out: Highest prodrug solubility in saline (equivalent of Cpd 1)
Description: The following procedures were used
Step 1. Sample preparation. An amount of the compound sample was precisely weighed to correspond to around 10 mg of the hydroxamate of compound 1, taking into account the mass of the leaving group and the salt factor if applicable. The sample was placed in a 16×125 mm glass screw cap tube. Saline was added so that the final concentration of hydroxamate 1 was 10.00 mg/mL. The tube was shaken for 1 hour on a Vortex apparatus then centrifuged at 3000 rpm (1800 rcf) for 5 minutes. If the compound example was soluble (no precipitate formed) then the pH was measured with a pH meter, and the procedure continued to step 2. If a precipitate formed then the sample was diluted with saline so that the final concentration of the hydroxamate of compound 1 became 5.00 mg/mL, and the shaking and centrifuging steps were repeated. If the compound example was soluble (no precipitate formed) then the pH was measured with a pH meter, and the procedure continued to step 2. If a precipitate formed then the sample was diluted with saline so that the final concentration of the hydroxamate of compound 1 became 2.50 mg/mL, and the shaking and centrifuging steps were repeated. If the compound example was soluble (no precipitate formed) then the pH was measured with a pH meter, and the procedure continued to step 2

[3] = Conversion of prodrugs to compound 1 in human plasma; assay type: in vitro ADME; conditions: human plasma (Na-Heparin treated), 37° C.
Description: (§1) Step 1. Sample preparation. A quantity of blank human plasma (Na-Heparin treated) was incubated at 37° C. for 30 minutes. An amount of the compound sample was precisely weighed to correspond to around 5.00 mg of the hydroxamate of compound 1, taking into account the mass of the leaving group and the salt factor if applicable. The sample was placed in a 16×125 mm glass screw cap tube. The incubated blank human plasma was added so that the final concentration of hydroxamate 1 was 1.00 mg/mL. The sample was sonicated for 30 seconds, shaken for 30 seconds on a Vortex apparatus, and run through the HPLC procedure of Step 2 to get a time point zero value. The samples were stored in an incubator at 37° C., and the HPLC analysis of Step 2 was repeated in 30 minutes and 1 hour.
(§2) Step 2. Protein precipitation and HPLC analysis of plasma. A 50 μL aliquot of plasma was taken in a 1.5 mL Eppendorf vial, to which was added 200 μL of MeCN. The vial was capped and shaken on a Vortex apparatus for 30 seconds, then centrifuged at 13000 rpm (15700 rcf) for five minutes. When centrifuging was complete, 100 μL of the supernatant was placed in an injection vial containing an insert, to which was added 100 μL of 0.1% formic acid in water. The vial was capped and shaken on a Vortex apparatus for 30 seconds, and the contents were injected into the HPLC-UV instrument, and a comparison was made of the retention time, peak areas and level of degradation (if any) using the GDADI50 method.
Step 3. Reference sample preparation. An amount of the compound sample was precisely weighed to correspond to around 5.00 mg of the hydroxamate of compound 1, taking into account the mass of the leaving group and the salt factor if applicable. The sample was placed in a 16×125 mm glass screw cap tube. A quantity of MeCN/H2O 50/50 v/v was added so that the final concentration of hydroxamate 1 was 1.00 mg/mL. An injection vial was filled with 100 μL of this sample stock solution and 900 μL of a solution of 40/60 MeCN/0.1% formic acid in water. The vial was capped and the contents were injected into the HPLC-UV instrument, and a comparison was made of the retention time, peak areas and level of degradation (if any) using the GDADI50 method.

[4] = Conversion of prodrugs to compound 1 in mouse plasma; assay type: in vitro ADME; conditions: mouse plasma (Na-Heparin treated); for Prodrug loss at 0.5 hr / Prodrug loss at 1 hr: 37° C.; for Prodrug solubility in plasma: equivalent to 1.00 mg/mL of compound 1, * = Plasma quickly became cloudy
Description: as §1, with “blank mouse” for “blank human”, “repeated at” for “repeated in”, “1 hour” for “1 hour.”
as §2

Row | SMILES | pH at 1.00 mg/mL of MGCD290 in saline [1] | solubility at 1 h [1] | solubility at 1 h [2] | Prodrug loss at 0.5 hr [3] | Prodrug loss at 1 hr [3] | Prodrug loss at 0.5 hr [4] | Prodrug loss at 1 hr [4] | Prodrug solubility in plasma [4]
1 | Cl.O=C(Cc1ccc(CCCCc2ccccc2)cc1)NOC(=O)CCC1CCNCC1 [Compound 110, 2-(4-(4-Phenylbutyl)phenyl)-N-(3-(piperidin-4-yl)propanoyloxy) acetamide hydrochloride] | 4.5-5 | > 1000 µg/mL | 10000 µg/mL | 85.5% | 99.6% | 100% | 100% | Yes*
2 | COCCOCCOCCOCCOCCOCC(=O)N1CCC(CCCC(=O)ONC(=O)Cc2ccc(CCCCc3ccccc3)cc2)CC1 [Compound 122] | 5.-5.5 | > 1000 µg/mL | 10000 µg/mL | 66.6% | 91.9% | 100% | 100% | Yes**
3 | NCCNCC(=O)NCCC(=O)ONC(=O)Cc1ccc(CCCCc2ccccc2)cc1 [Compound 135, 2-(2-aminoethylamino)-N-(3-oxo-3-(2-(4-(4-phenylbutyl)phenyl)acetamidooxy)propyl) acetamide dihydrochloride] | 4.5-5 | > 1000 µg/mL | 10000 µg/mL | 98.7% | 99.8% | 100% | 100% | Yes*

More lines, now with the values ahead:

Row | pH at 1.00 mg/mL of MGCD290 in saline [1] | solubility at 1 h [1] | solubility at 1 h [2] | Prodrug loss at 0.5 hr [3] | Prodrug loss at 1 hr [3] | Prodrug loss at 0.5 hr [4] | Prodrug loss at 1 hr [4] | Prodrug solubility in plasma [4] | SMILES
4 | 4.5-5 | > 1000 µg/mL | 2500 µg/mL | 22.7% | 89.1% | 100% | 100% | Yes* | COCCOCCOCC(=O)NCCCC[C@H](NC(=O)COCCOCCOC)C(=O)NCCCC(=O)ONC(=O)Cc1ccc(CCCCc2ccccc2)cc1 [Compound 99, (S)—N,N-(6-Oxo-6-(4-oxo-4-(2-(4-(4-phenylbutyl)phenyl)acetamidooxy)butylamino)hexane-1,5-diyl)bis(2-(2-(2-methoxyethoxyl)ethoxy)acetamide)]
5 | 4.5-5 | > 1000 µg/mL | 1000 µg/mL | 69.4% | 93.4% | 100% | 100% | Yes* | COCCOCC(=O)NCCCC[C@H](NC(=O)COCCOC)C(=O)NCCCC(=O)ONC(=O)Cc1ccc(CCCCc2ccccc2)cc1 [Compound 100]
6 | 4.5-5 | > 1000 µg/mL | 10000 µg/mL | 65.5% | 90.5% | 98% | 99% | Yes* | COCCOCCOCCOCCOCCOCC(=O)N1CCC(CCC(=O)ONC(=O)Cc2ccc(CCCCc3ccccc3)cc2)CC1 [Compound 111, N-(3-(1-2,5,8,11,14,17-Hexaoxanonadecanepiperidin-4-yl)propanoyloxy)-2-(4-(4-phenylbutyl)phenyl)acetamide]
